test system: Escherichia coli (ATCC25922) or Staphylococcus aureus (ATCC25923); experiment: Antibacterial MIC, microdilution method in Mueller-Hinton medium; type: cell-based; settings: Escherichia coli, 18 h, MIC in E. coli or S. aureus; two-fold serial dilutions 64 to 0.5 μg/ml in duplicate; 18 hours of incubation at 35° C.; read-out: Potency (MIC)
Summary of the method: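 Two-fold serial dilutions from 64 to 0.5 μg/ml, in duplicate, by broth microdilution in Mueller-Hinton medium (NCCLS M7-A5). MIC taken as the lowest concentration preventing visible growth after 18 h at 35° C.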

Row | MIC | Molecule
1 | > 64 µg/mL | N[C@@H]1C[C@H](N)CN(c2nc(Nc3ccccc3S(N)(=O)=O)nc(N3C[C@H](N)C[C@H](N)C3)n2)C1 [N-(2-sulfamoyl-phenyl)-4,6-Bis-((3R,5S)-3,5-diamino-piperidin-1-yl)-[1,3,5]triazine-2-amine]
2 | < 16 µg/mL | Cl.N[C@@H]1CC(c2nc(Nc3ccc(C(=O)CC(=O)Nc4ccccc4N4CCOCC4)cc3)nc(N3C[C@H](N)C[C@H](N)C3)n2)C[C@H](N)C1 (stereo partly drawn) [N-{4-[2-(2-morpholin-4-yl-phenylcarbamoyl)-acetyl]-phenytl}-4,6-Bis-((3R,5S)-3,5-diamino-piperidin-1-yl)-[1,3,5]triazine-2-ammine]
3 | > 64 µg/mL | COC(=O)CC(=O)Nc1ccc(Nc2nc(N3C[C@H](N)C[C@H](N)C3)nc(N3C[C@H](N)C[C@H](N)C3)n2)cc1O [N-{4-[4,6-Bis-((3R,5S)-3,5-diamino-piperidin-1-yl)-[1,3,5]triazin-2-ylamino]-2-hydroxy-phenyl}-malonamic acid methylester]
4 | < 64 µg/mL | Cl.O=C(Nc1ccc(Nc2nc(NCCCn3ccnc3)nc(N3CCCCC3)n2)cc1O)c1ccc(Cl)cc1
5 | < 64 µg/mL | N[C@@H]1C[C@H](N)CN(c2nc(Nc3cccc(NC(=O)c4cc5cccc(O)c5cc4O)c3)nc(N3C[C@H](N)C[C@H](N)C3)n2)C1 [N-{3-[(3,5-dihydroxy-naphthalene-2-carbonyl)-amino]-phenyl}-4,6-Bis-((3R,5S)-3,5-diamino-piperidin-1-yl)-[1,3,5]triazine-2-amine]
6 | > 64 µg/mL | Cl.N[C@@H]1C[C@H](N)CN(c2nc(Nc3ccc4c(c3)CCC4)nc(N3C[C@H](N)C[C@H](N)C3)n2)C1 [N-indan-5-yl-4,6-Bis-((3R,5S)-3,5-diamino-piperidin-1-yl)-[1,3,5]triazine-2-amine]
7 | < 16 µg/mL | Cl.O=C(CC(=O)c1ccc(Nc2nc(N3CCCCC3)nc(N3CCCCC3)n2)cc1)Nc1ccc(-c2ccccc2)cc1 [N-{4-[2-(biphenyl-44-ylcarbamoyl)-acetyl]-phenyl}-44,6-Bis-((3R,5S)-3,5-diamino-piperidin-1-yl)-[1,3,5]triazine-2-amine]
8 | > 64 µg/mL | CC(=O)N1CCN(c2nc(Nc3ccc(S(=O)(=O)Nc4ccc5cn[nH]c5c4)cc3)nc(N3C[C@H](N)C[C@H](N)C3)n2)CC1 [4-[4-(4-Acetyl-piperazin-1-yl)-6-((3R,5S)-3,5-diamino-piperidin-1-yl)-[1,3,5]triazin-2-ylamino]-N-(1H-indazol-6-yl)-benzenesulfonamide]
9 | > 64 µg/mL | Cl.O=C(CC(=O)N1CCC(n2c(=O)[nH]c3ccccc32)CC1)c1ccc(Nc2nc(N3CCCCC3)nc(N3CCCCC3)n2)cc1 [N-(4-{3-oxo-3-[4-(2-oxo-2,3-dihydro-benzoimidazol-1-yl)-piperidin-1-yl]-propionly}-phenyl)-4,6-Bis-((3R,5S)-3,5-diamino-piperidin-1-yl)-[1,3,5]triazine-2-amine]
10 | > 64 µg/mL | N[C@@H]1C[C@H](N)CN(c2nc(Nc3ccccc3O)nc(N3C[C@H](N)C[C@H](N)C3)n2)C1 [N-(2-hydroxy-phenyl)-4,6-Bis-((3R,5S)-3,5-diamino-piperidin-1-yl)-[1,3,5]triazine-2-amine]

same assay, conditions: Escherichia coli, 18 h, read-out: Potency (MIC)

Row | Molecule | MIC
11 | N[C@@H]1C[C@H](N)CN(c2nc(Nc3ccc(NC(=O)C=Cc4ccccc4)c(O)c3)nc(N3C[C@H](N)C[C@H](N)C3)n2)C1 [N-[3-hydroxy-4-(3-phenyl-acryloylamino)-phenyl]-4,6-Bis-((3R,5S)-3,5-diamino-piperidin-1-yl)-[1,3,5]triazine-2-amine] | < 16 µg/mL
12 | N[C@@H]1C[C@H](N)CN(c2nc(Nc3ccc(C(=O)CC(=O)Nc4ccc(F)c(F)c4)cc3)nc(N3C[C@@H](N)C[C@H]3CO)n2)C1 [3-{4-[4-((2S,4S)-4-Amino-2-hydroxymethyl-pyrrolidin-1-yl)-6-((3R,5S)-3,5-diamino-piperidin-1-yl)-[1,3,5]triazin-2-ylamino]-phenyl}-N-(3,4-difluoro-phenyl)-3-oxo-propionamide] | < 64 µg/mL
13 | N[C@@H]1C[C@H](N)CN(c2nc(Nc3ccc(C(=O)CC(=O)Nc4ccccc4F)cc3)nc(N3C[C@H](N)C[C@H](N)C3)n2)C1 [N-{4-[2-(2-fluoro-phenylcarbamoyl)-acetyl]-phenyl}-4,6-Bis-((3R,5S)-3,5-diamino-piperidin-1-yl)-[1,3,5]triazine-2-amine] | < 64 µg/mL
14 | N[C@@H]1C[C@H](N)CN(c2nc(NNc3cc(Cl)cc(Cl)c3)nc(N3C[C@H](N)C[C@H](N)C3)n2)C1 [N-(4,6-Bis-((3R,5S)-3,5-diamino-piperidin-1-yl)-[1,3,5]triazin-2-yl)-N′-(3,5-Dichloro-phenyl)-hydrazine] | < 64 µg/mL
15 | N[C@@H]1C[C@H](N)CN(c2nc(Nc3cccc(NC(=O)c4cccc([N+](=O)[O-])c4O)c3)nc(N3C[C@H](N)C[C@H](N)C3)n2)C1 [N-[3-(2-hydroxy-3-nitro-benzoylamino)-phenyl]-4,6-Bis-((3R,5S)-3,5-diamino-piperidin-1-yl)-[1,3,5]triazine-2-amine] | < 16 µg/mL
16 | CCCC(=O)Nc1ccc(Nc2nc(N3C[C@H](N)C[C@H](N)C3)nc(N3C[C@H](N)C[C@H](N)C3)n2)cc1O [N-(4-butyrylamino-3-hydroxy-phenyl)-4,6-Bis-((3R,5S)-3,5-diamino-piperidin-1-yl)-[1,3,5]triazine-2-amine] | > 64 µg/mL
17 | N[C@@H]1C[C@H](N)CN(c2nc(Nc3ccc(NC(=O)c4c(O)ccc5ccccc45)cc3)nc(N3C[C@H](N)C[C@H](N)C3)n2)C1 [N-{4-[(2-hydroxy-naphthalene-1-carbonyl)-amino]-phenyl}-4,6-Bis-((3R,5S)-3,5-diamino-piperidin-1-yl)-[1,3,5]triazine-2-amine] | < 16 µg/mL
18 | N[C@@H]1C[C@H](N)CN(c2nc(Nc3ccc(C(=O)Nc4ccc(-c5ccccc5)cc4)c(O)c3)nc(N3C[C@H](N)C[C@H](N)C3)n2)C1 [N-[4-(biphenyl-4-ylcarbamoyl)-3-hydroxy-phenyl]-4,6-Bis-((3R,5S)-3,5-diamino-piperidin-1-yl)-[1,3,5]triazine-2-amine] | < 16 µg/mL
19 | COc1ccc(C(=O)Nc2ccc(Nc3nc(N4C[C@H](N)C[C@H](N)C4)nc(N4C[C@H](N)C[C@H](N)C4)n3)cc2O)c(O)c1OC [N-[3-hydroxy-4-(2-hydroxy-3,4-dimethoxy-benzoylamino)-phenyl]-4,6-Bis-((3R,5S)-3,5-diamino-piperidin-1-yl)-[1,3,5]triazine-2-amine] | < 64 µg/mL
20 | N[C@@H]1C[C@H](N)CN(c2nc(Nc3ccc(NC(=O)c4ccccc4Cl)c(O)c3)nc(N3C[C@H](N)C[C@H](N)C3)n2)C1 [N-[4-(2-chloro-benzoylamino)-3-hydroxy-phenyl]-4,6-Bis-((3R,5S)-3,5-diamino-piperidin-1-yl)-[1,3,5]triazine-2-amine] | < 64 µg/mL
21 | N[C@@H]1C[C@H](N)CN(c2nc(Nc3ccc(NC(=O)c4ccc(Cl)cc4O)c(Br)c3)nc(N3C[C@H](N)C[C@H](N)C3)n2)C1 [N-[3-bromo-4-(4-chloro-2-hydroxy-benzoylamino)-phenyl]-4,6-Bis-((3R,5S)-3,5-diamino-piperidin-1-yl)-[1,3,5]triazine-2-amine] | < 16 µg/mL
22 | CNC(=S)NNc1nc(N2C[C@H](N)C[C@H](N)C2)nc(N2C[C@H](N)C[C@H](N)C2)n1 [N-(3-methyl-thioureido)-4,6-Bis-((3R,5S)-3,5-diamino-piperidin-1-yl)-[1,3,5]triazine-2-amine] | > 64 µg/mL
23 | N[C@@H]1C[C@H](N)CN(c2nc(Nc3ccc(C(=O)N4CCNC(=O)C4)c(O)c3)nc(N3C[C@H](N)C[C@H](N)C3)n2)C1 [N-[3-hydroxy-4-(3-oxo-piperazine-1-carbonyl)-phenyl]-4,6-Bis-((3R,5S)-3,5-diamino-piperidin-1-yl)-[1,3,5]triazine-2-amine] | > 64 µg/mL
24 | N[C@@H]1C[C@H](N)CN(c2nc(Nc3ccc(S(=O)(=O)Nc4ccc5cn[nH]c5c4)cc3)nc(N3C[C@@H](N)C[C@H]3CO)n2)C1 [4-[4-((2S,4S)-4-Amino-2-hydroxymethyl-pyrrolidin-1-yl)-6-((3R,5S)-3,5-diamino-piperidin-1-yl)-[1,3,5]triazin-2-ylamino]-N-(1H-indazol-6-yl)-benzenesulfonamide] | > 64 µg/mL
25 | COc1nc(Nc2ccc(S(=O)(=O)Nc3ccc4cn[nH]c4c3)cc2)nc(N2C[C@H](N)C[C@H](N)C2)n1 [4-[4-((3R,5S)-3,5-Diamino-piperidin-1-yl)-6-methoxy-[1,3,5]triazin-2-ylamino]-N-(1H-indazol-6-yl)-benzenesulfonamide] | > 64 µg/mL
26 | N[C@@H]1C[C@H](N)CN(c2nc(NNc3cccc(C(F)(F)F)c3)nc(N3C[C@H](N)C[C@H](N)C3)n2)C1 [N-(4,6-Bis-((3R,5S)-3,5-diamino-piperidin-1-yl)-[1,3,5]triazin-2-yl)-N′-(3-Trifluoromethyl-phenyl)-hydrazine] | < 64 µg/mL
27 | N[C@@H]1C[C@H](N)CN(c2nc(Nc3ccc(C(=O)c4ccccc4)cc3)nc(N3C[C@H](N)C[C@H](N)C3)n2)C1 [N-(4-benzoyl-phenyl)-4,6-Bis-((3R,5S)-3,5-diamino-piperidin-1-yl)-[1,3,5]triazine-2-amine] | < 64 µg/mL

same assay, conditions: MIC in E. coli or S. aureus; two-fold serial dilutions 64 to 0.5 μg/ml in duplicate; 18 hours of incubation at 35° C.

Row | Molecule | Potency (MIC)
28 | N-[4-(cyclohexanecarbonyl-amino)-3-hydroxy-phenyl]-4,6-Bis-((3R,5S)-3,5-0diamino-piperidin-1-yl)-[1,3,5]triazine-2-amine | + (+ means MIC<64 μg/ml in E. coli or S. aureus)
29 | Cl.O=C(Oc1ccccc1)c1ccc(Nc2nc(N3CCCCC3)nc(N3CCCCC3)n2)cc1O [drawing 229, 4-[4-((3S,5R)-3,5-diamino-piperidin-1-yl)-6-((3R,5R)-3,5-dihydroxy-piperidin-1-yl)-[1,3,5]triazin-2-ylamino]-2-hydroxy-benzoic acidphenyl ester] | − (− means MIC>64 μg/ml in E. coli or S. aureus)
30 | N-(4-acetylamino-3,5-dichloro-phenyl)-4,6-Bis-0((3R,5S)-3,5-diamino-piperidin-1-yl)-[1,3,5]triazine-2-amine | − (− means MIC>64 μg/ml in E. coli or S. aureus)

Source: patent US7223759B2, “Antibacterial 3,5-diaminopiperidine-substituted aromatic and heteroaromatic compounds” (Anadys Pharmaceuticals, Inc., priority 2003, dated 2007)
